# Measured values taken from PMC7615677 (Science translational medicine, 2023).
# Like-named read-outs stand apart in the source and are kept apart here.
# Key:
# In vivo pharmacokinetics [1] = test: In vivo pharmacokinetics; set-up: species or system male beagle dogs
# Experimental: (§1) Additional PK studies were also conducted by WuXi AppTec Co, Ltd (Shanghai, China) according to protocols reviewed and approved by DNDi. […] IV and oral formulations for rats, mice and hamsters were the same as described above. For dogs, the IV dose was administered in saline containing 2% DMSO and 3% Solutol HS-15 and the oral formulation was as described above. Blood was sampled up to 48 h post-dose into vials containing potassium EDTA as an anticoagulant, proteins were precipitated with acetonitrile and plasma was separated and assayed by LC-MS.
# (§2) Single dose pharmacokinetic parameters (clearance, volume of distribution and half-life) were initially estimated using non-compartmental methods and oral bioavailability was calculated using the ratio of the dose corrected AUC after oral dosing relative to that after IV administration. Nominal doses were used in the calculations unless the measured dose differed by more than 15% from the nominal dose, in which case the measured dose was used. Where a full concentration versus time profile was obtained from a single animal, parameters were estimated for each animal and mean and standard deviations calculated. In the case of mice where sparse sampling was used with multiple animals per time point, the data analysis was conducted using the mean profile.
# in vivo = conditions: both, Wistar Han, rat, po
# Excerpt: Parameters monitored included morbidity/mortality, clinical signs, body weight, food consumption, hematology and serum clinical chemistry. Main study animals were killed on the day after the last dose and necropsied. Selected organs were weighed. Organ/tissue samples were fixed and preserved at necropsy. Following the macroscopic examination, selected organs/tissues were examined histopathologically and compared to the control group. Satellite animals were sampled for toxicokinetics on days 1 and 14, at various time-points after treatment.
# [2] = Human PK and dose prediction (IVIVE, allometry, GastroPlus PBPK); conditions: plasma; for AUC: read-out: target cumulative total human plasma AUC
# Excerpt: Human plasma clearance was estimated by in vitro/in vivo extrapolation (IVIVE) of data from liver microsomes and allometry using the available in vivo preclinical data. In both cases, renal excretion of unchanged drug was assumed to be negligible (experimentally confirmed in the rat). […] Therefore, the “rule of exponents” was applied and the unbound clearance data were corrected for brain weight ([13]) as described previously ([14]).
# The predicted clearance was input along with the data in Table S16 into a physiologically-based pharmacokinetic (PBPK) model (GastroPlus) to simulate human profiles under different dosing conditions. Given that there was no evidence of renal elimination in rats, it was assumed that clearance occurs solely by hepatic metabolism.
# Human clearance was estimated using in vitro/in vivo extrapolation (IVIVE) of data obtained in liver microsomes and cryopreserved hepatocytes incorporating binding to microsomes and hepatocytes, plasma protein binding and the blood to plasma ratio. Scaling factors were as described previously ([12]) and liver blood flows were from Simcyp, assuming an average human body weight of 50 kg was assumed for the patient population ([12]).
# The human dose predictions were based on PK and PD data in hamsters (best case scenario) and mice (worst case scenario) and unbound plasma concentrations that led to 95% efficacy. Human profiles were simulated at different doses and dosing regimens (qd or bid) over 10-14 days using GastroPlus (version 9.8, Simulations Plus, Inc., Lancaster, CA). The PBPK model used fasted physiological conditions and a 50 kg 30-year-old American male. The Berezhkovskiy perfusion limited model was used for Kp estimation ([30]). The estimated human plasma clearance was input directly into the model with the assumption that elimination occurred only by hepatic metabolism (consistent with data in rats).
# In vivo pharmacokinetics [3] = test: In vivo pharmacokinetics; set-up: species or system male Sprague Dawley rats; conditions: for Vd: read-out: Plasma Vss
# Experimental: Single dose intravenous (IV) pharmacokinetic (PK) studies in male Sprague Dawley rats and IV and oral PK studies in female BALB/c mice were conducted at Monash University. […] Blood was sampled via a cannula implanted in the carotid artery (also on the day prior to dosing) at pre-determined time points up to 24 h post-dose. Samples were transferred to vials containing heparin as an anticoagulant, gently mixed and centrifuged, and plasma separated for subsequent quantitative analysis using LC-MS. […] A dose of 25 mg/kg prepared in an aqueous suspension vehicle containing 0.5% hydroxypropyl methylcellulose, 0.5% benzyl alcohol and 0.4% polysorbate 80 (0.2 mL per mouse) was also dosed via oral gavage. Mouse blood was sampled via submandibular bleed up to 24 h post-dose (n=2 mice per time point, n=3 samples per mouse) into vials containing heparin and plasma was separated for quantitative analysis as described above.
# as §1, §2
# [4] = dogs, single oral 90 mg/kg, two individual dogs, 90 mg/kg
# [5] = male, beagle, dog, plasma, dogs, single oral 30 mg/kg
# [6] = male, beagle, dog, plasma, dogs, single oral 90 mg/kg
# [7] = male, beagle, plasma, Dog, oral 5.0 mg/kg
# [8] = male, Sprague Dawley, plasma, Rat, oral 10 mg/kg
# [9] = male, Sprague Dawley, rat, plasma, rats, single oral 50 mg/kg
# [10] = male, Sprague Dawley, rat, plasma, rats, single oral 100 mg/kg
# [11] = male, Sprague Dawley, rat, plasma, rats, single oral 300 mg/kg
smiles,measurement,setting,value
Cc1[nH]c2nc(N)nc(C)c2c1-c1ccc(C#N)c2c1OCO2 [DNDI-6174],AUC0-∞,In vivo pharmacokinetics [1]; [4],533000 ng·h/mL
same,T1/2,In vivo pharmacokinetics [1]; [4],20.9 h
same,half-life,"In vivo pharmacokinetics [1]; male, beagle, dog, plasma, iv, 1 mg/kg, Dog, intravenous 1.0 mg/kg, read-out: Apparent t1/2 (converted)",9.84 h
same,AUC(0-inf),"In vivo pharmacokinetics [1]; male, beagle, dog, plasma, iv, 1 mg/kg, Dog, intravenous 1.0 mg/kg, read-out: Plasma AUC0-inf",5000 ng·h/mL
same,clearance,"In vivo pharmacokinetics [1]; male, beagle, dog, plasma, iv, 1 mg/kg, Dog, intravenous 1.0 mg/kg, read-out: Plasma CL",3.5 mL/min/kg
same,clearance,"In vivo pharmacokinetics [1]; male, beagle, dog, plasma, iv, 1 mg/kg, Dog, read-out: Measured in vivo CLplasma",3.4 mL/min/kg
same,half-life,"In vivo pharmacokinetics [1]; male, beagle, dog, plasma, po, 5 mg/kg, Dog, oral 5.0 mg/kg, read-out: Apparent t1/2 (converted)",6.9 h
same,AUC(0-inf),"In vivo pharmacokinetics [1]; male, beagle, dog, plasma, po, 5 mg/kg, Dog, oral 5.0 mg/kg, read-out: Plasma AUC0-∞",18500 ng·h/mL
same,AUC(0-inf),"In vivo pharmacokinetics [1]; male, beagle, dog, plasma, po, 30 mg/kg, dogs, single oral 30 mg/kg, read-out: AUC0-∞",255000 ng·h/mL
same,half-life,"In vivo pharmacokinetics [1]; male, beagle, dog, plasma, po, 30 mg/kg, dogs, single oral 30 mg/kg, read-out: T1/2 (converted)",14.4 h
same,AUC(0-inf),"In vivo pharmacokinetics [1]; male, beagle, dog, plasma, po, 90 mg/kg, dogs, single oral 90 mg/kg, two individual dogs, read-out: AUC0-∞",613000 ng·h/mL
same,half-life,"In vivo pharmacokinetics [1]; male, beagle, dog, plasma, po, 90 mg/kg, dogs, single oral 90 mg/kg, two individual dogs, read-out: T1/2 (converted)",14.2 h
same,Cmax,In vivo pharmacokinetics [1]; [5],9590 ng/mL
same,Tmax,In vivo pharmacokinetics [1]; [5],3.33 h
same,Cmax,In vivo pharmacokinetics [1]; [6],19100 ng/mL
same,Tmax,In vivo pharmacokinetics [1]; [6],10.7 h
same,Vd,"In vivo pharmacokinetics [1]; male, beagle, plasma, Dog, intravenous 1.0 mg/kg, read-out: Plasma Vss",2.5 L/kg
same,Cmax,In vivo pharmacokinetics [1]; [7],2020 ng/mL
same,Tmax,In vivo pharmacokinetics [1]; [7],4 h
same,bioavailability,In vivo pharmacokinetics [1]; [7],90%
same,NOAEL at 14 days,in vivo,80 mg/kg
same,AUC,"[2]; male, oral, 27 ug",460000 ng·h/mL
same,AUC,[2]; 4 ug,60000 ng·h/mL
same,clearance,"[2]; from in vitro predictions, read-out: expected plasma clearance in humans",~1 mL/min/kg
same,Cmax,In vivo pharmacokinetics [3]; [8],4210 ng/mL
same,Tmax,In vivo pharmacokinetics [3]; [8],4 h
same,bioavailability,In vivo pharmacokinetics [3]; [8],93%
same,half-life,"In vivo pharmacokinetics [3]; male, Sprague Dawley, rat, plasma, iv, 3 mg/kg, Rat, intravenous 3.0 mg/kg, Monash University, read-out: Apparent t1/2 (converted)",7.9 h
same,AUC(0-inf),"In vivo pharmacokinetics [3]; male, Sprague Dawley, rat, plasma, iv, 3 mg/kg, Rat, intravenous 3.0 mg/kg, Monash University, read-out: Plasma AUC0-inf",23600 ng·h/mL
same,clearance,"In vivo pharmacokinetics [3]; male, Sprague Dawley, rat, plasma, iv, 3 mg/kg, Rat, intravenous 3.0 mg/kg, Monash University, read-out: Plasma CL",2.12 mL/min/kg
same,Vd,"In vivo pharmacokinetics [3]; male, Sprague Dawley, rat, plasma, iv, 3 mg/kg, Rat, intravenous 3.0 mg/kg, Monash University",1.4 L/kg
same,half-life,"In vivo pharmacokinetics [3]; male, Sprague Dawley, rat, plasma, iv, 3 mg/kg, Rat, intravenous 3.0 mg/kg, WuXi AppTec, read-out: Apparent t1/2 (converted)",5.3 h
same,AUC(0-inf),"In vivo pharmacokinetics [3]; male, Sprague Dawley, rat, plasma, iv, 3 mg/kg, Rat, intravenous 3.0 mg/kg, WuXi AppTec, read-out: Plasma AUC0-inf",18500 ng·h/mL
same,clearance,"In vivo pharmacokinetics [3]; male, Sprague Dawley, rat, plasma, iv, 3 mg/kg, Rat, intravenous 3.0 mg/kg, WuXi AppTec, read-out: Plasma CL",2.95 mL/min/kg
same,Vd,"In vivo pharmacokinetics [3]; male, Sprague Dawley, rat, plasma, iv, 3 mg/kg, Rat, intravenous 3.0 mg/kg, WuXi AppTec",1.3 L/kg
same,clearance,"In vivo pharmacokinetics [3]; male, Sprague Dawley, rat, plasma, iv, 3 mg/kg, Rat, read-out: Measured in vivo CLplasma",2.5 mL/min/kg
same,half-life,"In vivo pharmacokinetics [3]; male, Sprague Dawley, rat, plasma, po, 10 mg/kg, Rat, oral 10 mg/kg, read-out: Apparent t1/2 (converted)",7 h
same,AUC(0-inf),"In vivo pharmacokinetics [3]; male, Sprague Dawley, rat, plasma, po, 10 mg/kg, Rat, oral 10 mg/kg, read-out: Plasma AUC0-∞",57700 ng·h/mL
same,AUC(0-inf),"In vivo pharmacokinetics [3]; male, Sprague Dawley, rat, plasma, po, 50 mg/kg, rats, single oral 50 mg/kg, read-out: AUC0-∞",292000 ng·h/mL
same,half-life,"In vivo pharmacokinetics [3]; male, Sprague Dawley, rat, plasma, po, 50 mg/kg, rats, single oral 50 mg/kg, read-out: T1/2 (converted)",9.05 h
same,Cmax,In vivo pharmacokinetics [3]; [9],14200 ng/mL
same,Tmax,In vivo pharmacokinetics [3]; [9],5.7 h
same,Cmax,In vivo pharmacokinetics [3]; [10],20900 ng/mL
same,Tmax,In vivo pharmacokinetics [3]; [10],17 h
same,Cmax,In vivo pharmacokinetics [3]; [11],30900 ng/mL
same,Tmax,In vivo pharmacokinetics [3]; [11],27 h
same,parent compound excreted unchanged in urine,"In vivo pharmacokinetics [3]; rats, intravenous",< 1%
same,AUC0-24 (reported in AUC0-∞ line),"In vivo pharmacokinetics [3]; rats, single oral 100 mg/kg",430000 ng·h/mL
same,AUC0-24 (reported in AUC0-∞ line),"In vivo pharmacokinetics [3]; rats, single oral 300 mg/kg",562000 ng·h/mL
